16 compounds from patent US6821991B2, “2-substituted thiazolidinones as β-3 adrenergic receptor agonists” (Wyeth, priority 2000, dated 2004) can be followed below.

Data set [1] addresses T1, β3-adrenergic receptor (Homo sapiens, UniProt P13945).
T1 construct: Full length β3 AR clones (402 amino acids) containing the last 6 amino acids of hβ3-AR are prepared; expressed in transfected cells; host or cells: CHO (Chinese hamster ovary) cells
The experiment in a line: cAMP accumulation (SPA) in CHO cells transfected with human β3 adrenergic receptor. The conditions noted are these: for EC50: CHO cells expressing human β3-AR, cAMP, 30 min, 37° C., 10^-9 M to 10^-5 M; for IA(β3): maximal response relative to maximal response of isoproterenol at 10^-5 M. Format: cell-based. How it is done:
The ability of compounds of this invention to treat or inhibit disorders related to insulin resistance or hyperglycemia was established with representative compounds of this invention in the following standard pharmacological test procedures, which measured the binding selectivity to the β1, β2, and β3 adrenergic receptors. Binding to the receptors was measured in Chinese Hamster ovary (CHO) cells that were transfected with adrenergic receptors.
Cloning of Human β3-AR Genomic DNA: CDNA was constructed by ligating four polymerase chain reaction (PCR) products using the following primers: an ATG-Narl fragment, sense primer 5′-[…]3′, and anti-sense primer 5′[…]3′; a Narl-Accl fragment, 5′[…]3′ as sense and 5′[…]3′ as anti-sense primer; an Accli-Styl fragment, sense primer 5′[…]3′ and anti-sense primer 5′[…]3′ and a Styl-TAG fragment, with sense primer 5′[…]3′ and anti-sense primer 5′[…]3′. The corresponding primer sequences are described in Mantzoros, C. […] The four fragments are ligated into a pUC 18 plasmid (Gibco-BRL) and sequenced.
Binding Procedure: Clones expressing receptor levels of 70 to 110 fmoles/mg protein were used in the test procedures. CHO cells were grown in 24-well tissue culture plates in Dulbecco's Modified Eagle Media with 10% fetal bovine serum, MEM non-essential amino acids, Penicillin-Streptompycin and Geneticin. On the day of test procedure, growth medium was replaced with preincubation media (Dulbecco's Modified Eagle Media) and incubated for 30 minutes at 37° C. […] Test compounds were tested over a concentration range of 10^−9 M to 10^−5 M for β3 cells and 10^−8 to 10^−4 M for β1 and β2 transfected cells. Isoproterenol (10^−5 M) was used as an internal standard for comparison of activity. Cells were incubated at 37° C. on a rocker for 30 min with the β3 cells and 15 min for β1 and β2 cells. Incubation was stopped with the addition of 0.2N HCl and neutralized with 2.5N NaOH. The plates, containing the cells and neutralized media, were stored at −20 degrees celsius until ready to test for cAMP using the SPA test kit (Amersham).
Data Analysis and Results: Data collected from the SPA test procedure were analyzed as per cent of the maximal isoproterenol response at 10^−5 M. Activity curves were plotted using the SAS statistical and graphics software.
On the technique in general: Changes in cAMP serve as a functional read-out for many G protein-coupled receptors.

The structures appear in SMILES notation. A value given as a limit tells only on which side of the number the result lay.

For orientation: EC50 means the concentration needed to bring the measured effect to its halfway point. Low readings indicate a more potent agent, high ones a less potent agent. A word on the melting point: it is the temperature, or range, at which the solid turns liquid.

T1 sequence (P13945 whole entry): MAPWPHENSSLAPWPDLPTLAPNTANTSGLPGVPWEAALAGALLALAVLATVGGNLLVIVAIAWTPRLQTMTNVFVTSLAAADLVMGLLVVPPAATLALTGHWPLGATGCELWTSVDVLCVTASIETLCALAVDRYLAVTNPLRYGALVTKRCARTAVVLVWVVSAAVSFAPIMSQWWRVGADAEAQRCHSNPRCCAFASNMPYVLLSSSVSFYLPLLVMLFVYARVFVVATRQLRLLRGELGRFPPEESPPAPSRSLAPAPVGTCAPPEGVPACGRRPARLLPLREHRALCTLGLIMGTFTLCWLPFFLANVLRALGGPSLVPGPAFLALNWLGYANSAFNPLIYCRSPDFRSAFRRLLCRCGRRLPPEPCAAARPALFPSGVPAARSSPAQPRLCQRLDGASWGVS

With `O=C(O)CCNC1=NC(=O)C(=Cc2ccc(N3CCC(NC[C@H](O)COc4cccc5[nH]c(=O)[nH]c45)CC3)cc2)S1` [Example 9, 3-[5-(4-{4-[(2S)-2-Hydroxy-3-(2-oxo-2,3-dihydro-1H-benzoimidazol-4-yloxy)-propylamino]-piperidin-1-yl}-benzylidene)-4-oxo-4,5-dihydro-thiazol-2-ylamino]-propionic acid], in data set [1], the EC50 came to 7 nM and the “IA(β3)” value is 0.81.

As for `CNC1=NC(=O)C(=Cc2ccc(N3CCC(NC[C@H](O)COc4cccc5[nH]c(=O)[nH]c45)CC3)cc2)S1` [Example 1, 4-((2S)-2-Hydroxy-3-{1-[4-(2-methylamino-4-oxo-4H-thiazol-5-ylidenemethyl)-phenyl]-piperidin-4-ylamino}-propoxy)-1,3-dihydrobenzoimidazol-2-one], the melting point was > 160 °C (dec.). For the same compound, in data set [1], the response was half-maximal at 9 nM (EC50) and the “IA(β3)” value stood at 1.0.

As to `O=C1N=C(N2CCOCC2)SC1=Cc1ccc(N2CCC(NC[C@H](O)c3cccc(Cl)c3)CC2)cc1` [Example 25, 5-(4-{4-[(2R)-2-(3-Chloro-phenyl)-2-hydroxy-ethylamino]-piperidin-1-yl}-benzylidene)-2-morpholin-4-yl-thiazol-4-one], the melting point is > 70 °C (dec.). Moreover, in data set [1], the EC50 is 450 nM and the “IA(β3)” value is on record as 0.51.

In the case of `Cl.O=C1N=C(N2CCCCC2)SC1=Cc1ccc(OCCNC[C@H](O)COc2ccccc2)cc1` [Example 32, 5-{4-[2-((2S)-2-Hydroxy-3-phenoxy-propylamino)-ethoxy]-benzylidene}-2-piperidin-1-yl-thiazol-4-one hydrochloride salt], in data set [1], it took 88 nM to reach a half-maximal effect (EC50) and the “IA(β3)” value was found to be 0.33.

With `Cl.Cl.O=C1N=C(N2CCOCC2)SC1=Cc1ccc(N2CCC(NC[C@H](O)COc3ccccc3)CC2)cc1` [Example 22, 5-{4-[4-((2S)-2-Hydroxy-3-phenoxy-propylamino)-piperidin-1-yl]-benzylidene}-2-morpholin-4-yl-thiazol-4-one dihydrochloride salt], the melting point is > 160 °C (dec.). Further, in data set [1], the EC50 was 40 nM and the “IA(β3)” value is 0.58.

Take `CN(C)CCCNC1=NC(=O)C(=Cc2ccc(N3CCC(NC[C@H](O)COc4ccccc4)CC3)cc2)S1` [Example 26, 2-(3-Dimethylamino-propylamino)-5-{4-[4-((2S)-2-hydroxy-3-phenoxy-propylamino)-piperidin-1-yl]-benzylidene}-thiazol-4-one]: the melting point was 166 to 168 °C (dec.). Also, in data set [1], the EC50 was found to be 156 nM and the “IA(β3)” value amounted to 0.85.

`CS(=O)(=O)Nc1cc(C(O)CNCCOc2ccc(C=C3SC(N4CCCCC4)=NC3=O)cc2)ccc1O` (stereo not drawn) [Example 33, N-[2-Hydroxy-5-(1-hydroxy-2-{2-[4-(4-oxo-2-piperidin-1-yl-4H-thiazol-5-ylidenemethyl)-phenoxy]-ethylamino}-ethyl)-phenyl]-methanesulfonamide]: in data set [1], the midpoint of the response, the EC50, lay at 2 nM and the “IA(β3)” value is recorded as 0.86.

Regarding `O=C1N=C(N2CCOCC2)SC1=Cc1ccc(N2CCC(NC[C@H](O)COc3ccc(O)cc3)CC2)cc1` [Example 23, 5-(4-{4-[(2S)-2-Hydroxy-3-(4-hydroxy-phenoxy)-propylamino]-piperidin-1-yl}-benzylidene)-2-morpholin-4-yl-thiazol-4-one], the melting point is > 100 °C (dec.). In data set [1], the midpoint of the response, the EC50, lay at 76 nM and the “IA(β3)” value came to 0.78.

Turning to `O=C1N=C(N2CCOCC2)SC1=Cc1ccc(N2CCC(NC[C@H](O)COc3cccc4[nH]c(=O)[nH]c34)CC2)cc1` [Example 18, 4-((2S)-2-Hydroxy-3-{1-[4-(2-morpholin-4-yl-4-oxo-4H-thiazol-5-ylidenemethyl)-phenyl]-piperidin-4-ylamino}-propoxy)-1,3-dihydro-benzoimidazol-2-one], the melting point is > 150 °C (dec.). In data set [1], the response was half-maximal at 3 nM (EC50) and the “IA(β3)” value is given as 0.89.

Consider `CCOC(=O)CC[C@H](NC1=NC(=O)C(=Cc2ccc(N3CCC(NC[C@H](O)c4ccc(O)c(NS(C)(=O)=O)c4)CC3)cc2)S1)C(=O)OCC` [Example 30, (2S)-2-[5-(4-{4-[(2R)-2-Hydroxy-2-(4-hydroxy-3-methanesulfonylamino-phenyl)-ethylamino]-piperidin-1-yl}-benzylidene)-4-oxo-4,5-dihydro-thiazol-2-ylamino]-pentanedioic acid diethyl ester], for which the melting point was > 130 °C (dec.). Besides, in data set [1], the response was half-maximal at 1 nM (EC50) and the “IA(β3)” value is listed as 1.0.

Consider `CCOC(=O)CCNC1=NC(=O)C(=Cc2ccc(N3CCC(NC[C@H](O)COc4cccc5[nH]c(=O)[nH]c45)CC3)cc2)S1` [Example 8, 3-[5-(4-{4-[(2S)-2-Hydroxy-3-(2-oxo-2,3-dihydro-1H-benzoimidazol-4-yloxy)-propylamino]-piperidin-1-yl}-benzylidene)-4-oxo-4,5-dihydro-thiazol-2-ylamino]-propionic acid ethyl ester], for which the melting point was > 120 °C (dec.). For the same compound, in data set [1], the response was half-maximal at 8 nM (EC50) and the “IA(β3)” value is reported as 0.75.

In the case of `CN1CCN(C2=NC(=O)C(=Cc3ccc(N4CCC(NC[C@H](O)COc5ccc(O)cc5)CC4)cc3)S2)CC1` [Example 24, 5-(4-{4-[(2S)-2-Hydroxy-3-(4-hydroxy-phenoxy)-propylamino]-piperidin-1-yl}-benzylidene)-2-(4-methyl-piperazin-1-yl)-thiazol-4-one], the melting point was > 210 °C (dec.). In addition, in data set [1], a half-maximal response (EC50) required 1920 nM and the “IA(β3)” value is recorded as 1.0.

Turning to `O=C1N=C(NC2CCN(Cc3ccccc3)CC2)SC1=Cc1ccc(N2CCC(NC[C@H](O)COc3cccc4[nH]c(=O)[nH]c34)CC2)cc1` [Example 3, 4-[(2S)-3-(1-{4-[2-(1-Benzyl-piperidin-4-ylamino)-4-oxo-4H-thiazol-5-ylidenemethyl]-phenyl}-piperidin-4-ylamino)-2-hydroxy-propoxy]-1,3-dihydro-benzoimidazol-2-one], the melting point was > 165 °C (dec.). In data set [1], the EC50 turned out to be 30 nM and the “IA(β3)” value stood at 0.52.

Turning to `O=C1N=C(NO)SC1=Cc1ccc(N2CCC(NC[C@H](O)COc3cccc4[nH]c(=O)[nH]c34)CC2)cc1` [Example 10, 4-((2S)-2-Hydroxy-3-{1-[4-(2-hydroxyamino-4-oxo-4H-thiazol-5-ylidenemethyl)-phenyl]-piperidin-4-ylamino}-propoxy)-1,3-dihydro-benzoimidazol-2-one], the melting point was 201 to 213 °C (dec.). Also, in data set [1], the EC50 was determined as 19 nM and the “IA(β3)” value amounted to 0.69.

Regarding `CN1CCN(C2=NC(=O)C(=Cc3ccc(N4CCC(NC[C@H](O)COc5cccc6[nH]c(=O)[nH]c56)CC4)cc3)S2)CC1` [Example 19, 4-[(2S)-2-Hydroxy-3-(1-{4-[2-(4-methyl-piperazin-1-yl)-4-oxo-4H-thiazol-5-ylidenemethyl]-phenyl}-piperidin-4-ylamino)-propoxy]-1,3-dihydro-benzoimidazol-2-one], the melting point is > 150 °C (dec.).

Regarding `Cl.O=C1N=C(N2CCCCC2)SC1=Cc1ccc(OCCNC[C@H](O)COc2ccc(O)cc2)cc1` [Example 31, 5-(4-{2-[(2S)-2-Hydroxy-3-(4-hydroxy-phenoxy)-propylamino]-ethoxy}-benzylidene)-2-piperidin-1-yl-thiazol-4-one hydrochloride salt], in data set [1], the concentration giving a half-maximal response (EC50) turned out to be 210 nM and the “IA(β3)” value was 0.84.
